From the supplement of paper PMC10627819

How the values were obtained:
Assay in all cases: fitness (endpoint OD595 vs no drug) (fraction); higher = more growth
[1] = system: B. subtilis 168
In short: (§1)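 Fitness expresses the optical density reached at the stationary-phase transition as a fraction of the robust mean of no-drug control wells. It is capped at 1. Measurements were OD595 every 30 min for 14 h at 37 °C after inoculation of 384-well plates at OD595 0.01 (30 µl, or 55 µl for S. pneumoniae), minus the first reading.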

[2] = system: S. pneumoniae D39V
In short: as §1

[3] = system: S. aureus Newman; conditions: one replicate
In short: as §1
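Also: OD595 on entry to stationary phase over no-drug wells; at most 1.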

O=C(O)[C@H]1/C(=C/CO)O[C@@H]2CC(=O)N21 [Clavulanic acid] + CC(=O)NC[C@H]1CN(c2ccc(N3CCOCC3)c(F)c2)C(=O)O1 [Linezolid]
[1], partner 0.0625 µg/mL, one replicate
Conditions | fitness
first compound 1.5 µg/mL | 0.85
first compound 3 µg/mL | 0.773
first compound 6 µg/mL | 0.789

fitness
Conditions | partner 0.105 µg/mL | partner 0.125 µg/mL | partner 0.2 µg/mL | partner 0.21 µg/mL | partner 0.25 µg/mL | partner 0.4 µg/mL | partner 0.42 µg/mL | partner 0.5 µg/mL | partner 0.8 µg/mL
[1], first compound 1.5 µg/mL | – | 0.659 | – | – | 0.247 | – | – | 0.0633 | –
[1], first compound 3 µg/mL | – | 0.597 | – | – | 0.184 | – | – | 0.025 | –
[1], first compound 6 µg/mL | – | 0.585 | – | – | 0.151 | – | – | 0.0316 | –
[2], first compound 0.5 µg/mL | 0.808 | – | 0.474 | 0.658 | – | 0.261 | 0.453 | – | 0.075
[2], first compound 1 µg/mL | 0.801 | – | 0.531 | 0.67 | – | 0.363 | 0.443 | – | 0.226
[2], first compound 2 µg/mL | 0.749 | – | 0.392 | 0.567 | – | 0.22 | 0.238 | – | 0.102

Clc1ccc(COC(Cn2ccnc2)c2ccc(Cl)cc2Cl)c(Cl)c1 (configuration not stated) [Miconazole] + Cc1ncc([N+](=O)[O-])n1CCO [Metronidazole]
fitness, [2]
Conditions | first compound 1.073 µg/mL | first compound 1.25 µg/mL | first compound 2.145 µg/mL | first compound 2.5 µg/mL | first compound 4.29 µg/mL | first compound 5 µg/mL
partner 1.073 µg/mL | – | 0.934 | – | 0.955 | – | 0.972
partner 1.25 µg/mL | ≥ 1 | – | ≥ 1 | – | 0.99 | –
partner 2.145 µg/mL | – | 0.932 | – | 0.858 | – | 0.846
partner 2.5 µg/mL | ≥ 1 | – | ≥ 1 | – | 0.888 | –
partner 4.29 µg/mL | – | 0.905 | – | 0.884 | – | 0.94
partner 5 µg/mL | ≥ 1 | – | ≥ 1 | – | 0.984 | –

O=C(O)[C@H]1/C(=C/CO)O[C@@H]2CC(=O)N21 [Clavulanic acid] + CN(C)[C@@H]1C(O)=C(C(N)=O)C(=O)[C@@]2(O)C(O)=C3C(=O)c4c(O)ccc(Cl)c4[C@@](C)(O)[C@H]3C[C@@H]12 [Chlortetracycline]
fitness
Conditions | partner 0.012 µg/mL | partner 0.024 µg/mL | partner 0.0475 µg/mL | partner 0.048 µg/mL | partner 0.095 µg/mL | partner 0.19 µg/mL | partner 0.375 µg/mL | partner 0.75 µg/mL | partner 1.5 µg/mL
[1], first compound 1.5 µg/mL | – | – | 0.873 | – | 0.754 | 0.58 | – | – | –
[1], first compound 3 µg/mL | – | – | 0.838 | – | 0.708 | 0.512 | – | – | –
[1], first compound 6 µg/mL | – | – | 0.745 | – | 0.582 | 0.422 | – | – | –
[2], first compound 0.5 µg/mL | 0.906 | 0.699 | – | 0.306 | – | – | 0.0436 | 0.0585 | 0.0458
[2], first compound 1 µg/mL | 0.821 | 0.686 | – | 0.366 | – | – | 0.0323 | 0.0545 | 0.0428
[2], first compound 2 µg/mL | 0.618 | 0.462 | – | 0.246 | – | – | 0.0402 | 0.0396 | 0.0545

O=C(O)[C@H]1/C(=C/CO)O[C@@H]2CC(=O)N21 [Clavulanic acid] + CC1(C)S[C@@H]2[C@H](NC(=O)Cc3ccccc3)C(=O)N2[C@H]1C(=O)O [Penicillin G]
fitness, [3]
Conditions | first compound 0.03125 µg/mL | first compound 0.0625 µg/mL | first compound 0.125 µg/mL
partner 0.0195 µg/mL | 0.934 | 0.859 | 0.796
partner 0.039 µg/mL | 0.851 | 0.819 | 0.712
partner 0.078 µg/mL | 0.846 | 0.694 | 0.613

O=C(O)[C@H]1/C(=C/CO)O[C@@H]2CC(=O)N21 [Clavulanic acid] + CCC[C@@H]1C[C@@H](C(=O)N[C@@H]([C@H]2O[C@H](SC)[C@H](O)[C@@H](O)[C@H]2O)[C@@H](C)O)N(C)C1 [Lincomycin]
fitness
Conditions | partner 0.1 µg/mL | partner 0.2 µg/mL | partner 0.215 µg/mL | partner 0.4 µg/mL | partner 0.43 µg/mL | partner 0.8 µg/mL | partner 0.86 µg/mL
[1], first compound 1.5 µg/mL | 0.91 | 0.868 | – | 0.892 | – | – | –
[1], first compound 3 µg/mL | 0.835 | 0.837 | – | 0.838 | – | – | –
[1], first compound 6 µg/mL | 0.822 | 0.686 | – | 0.704 | – | – | –
[2], first compound 0.5 µg/mL | – | 0.571 | 0.828 | 0.326 | 0.726 | 0.0312 | 0.39
[2], first compound 1 µg/mL | – | 0.591 | 0.809 | 0.354 | 0.687 | 0.186 | 0.332
[2], first compound 2 µg/mL | – | 0.406 | 0.726 | 0.258 | 0.606 | 0.045 | 0.21

fitness, [1], one replicate
Conditions | first compound 1.5 µg/mL | first compound 3 µg/mL | first compound 6 µg/mL
partner 0.8 µg/mL | 0.832 | 0.761 | 0.729
partner 1.6 µg/mL | 0.913 | 0.802 | 0.708
